{
  "source": "patent US20160220569A1",
  "about": "“CDK4/6 Inhibitor Dosage Formulations For The Protection Of Hematopoietic Stem And Progenitor Cells During Chemotherapy” (G1 Therapeutics, Inc., priority 2015, published 2016)",
  "test": "Single escalating dose IV infusion pharmacokinetics in healthy volunteers (noncompartmental)",
  "type": "in vivo, human",
  "settings": "human, plasma; for concentration at 24.5 h: read-out: concentration at 24.5 hours after the start of infusion; for concentration at 12.5 h: Time 12.50 h",
  "description": "Forty-five subjects have enrolled in the study.\nAnalysis of plasma concentration versus time data for calculation of standard pharmacokinetic (PK) parameters following intravenous infusion administration was conducted using Phoenix WinNonlin version 6.3 using a nominal infusion duration and scheduled blood sampling times. Random subject numbers were assigned by the bioanalytical laboratory to retain the blind.\n(§1) Analysis of plasma concentration versus time data for calculation of standard pharmacokinetic (PK) parameters following intravenous infusion administration was conducted using Phoenix WinNonlin version 6.3 using a nominal infusion duration and scheduled blood sampling times.\nas §1",
  "key": {"[1]": {"settings": "both sexes, iv, 48 mg/m2, Cohort 4, 48 mg/m^2 IV, r6-8=Subjects 1-3,r10=Mean,r12=Min,r13=Median,r14=Max,r16=Geometric Mean"}, "[2]": {"settings": "both sexes, iv, 48 mg/m^2, Compound 1 Concentration, Cohort 4, 48 mg/m^2 IV, r7-9=Subjects 1-3,r11=Mean,r13=Min,r14=Median,r15=Max,r17=Geometric Mean"}, "[3]": {"settings": "both sexes, iv, 96 mg/m^2, Cohort 5, 96 mg/m^2, 30-minute IV infusion, noncompartmental, subjects 1-6, Mean, Min, Median, Max, Geometric Mean"}, "[4]": {"settings": "both sexes, iv, 96 mg/m^2, Compound 1 Concentration, Cohort 5, 96 mg/m^2 IV, r7-12=Subjects 1-6,r14=Mean,r16=Min,r17=Median,r18=Max,r20=Geometric Mean"}},
  "note": "Where two headings read alike, the source gives them in different places.",
  "data": [
    {"smiles": "CN1CCN(c2ccc(Nc3ncc4cc5n(c4n3)C3(CCCCC3)CNC5=O)nc2)CC1", "note": "[Compound 1, 2′-((5-(4-methylpiperazin-1-yl)pyridin-2-yl)amino)-7′,8′-dihydro-6′H-spiro[cyclohexane-1,9′-pyrazino[1′,2′:1,5]pyrrolo[2,3-d]pyrimidin]-6′-one]", "values": [
      {"measurement": "Cmax", "setting": "both sexes, iv, 48 mg/m2, Cohort 4, 48 mg/m^2 IV, mean, read-out: Cmax averaged", "result": 224, "unit": "ng/mL"},
      {"measurement": "Tmax", "setting": "both sexes, iv, 48 mg/m2, Cohort 4, 48 mg/m^2 IV, median, read-out: median Tmax", "result": 0.5, "unit": "h"},
      {"measurement": "AUC(0-t)", "setting": "[1]", "result": 453, "unit": "ng·h/mL"},
      {"measurement": "MRT inf", "setting": "[1]", "result": 8.08, "unit": "h"},
      {"measurement": "AUC(0-inf)", "setting": "both sexes, iv, 48 mg/m2, Cohort 4, 48 mg/m^2 IV, r6-8=Subjects 1-3,r10=Mean,r12=Min,r13=Median,r14=Max,r16=Geometric Mean, read-out: AUCinf", "result": 499, "unit": "ng·h/mL"},
      {"measurement": "Cmax", "setting": "both sexes, iv, 48 mg/m2, Cohort 4, 48 mg/m^2 IV, r6-8=Subjects 1-3,r10=Mean,r12=Min,r13=Median,r14=Max,r16=Geometric Mean, read-out: Cmax", "result": 224, "unit": "ng/mL"},
      {"measurement": "Tmax", "setting": "both sexes, iv, 48 mg/m2, Cohort 4, 48 mg/m^2 IV, r6-8=Subjects 1-3,r10=Mean,r12=Min,r13=Median,r14=Max,r16=Geometric Mean, read-out: Tmax", "result": 0.417, "unit": "h"},
      {"measurement": "half-life", "setting": "both sexes, iv, 48 mg/m2, Cohort 4, 48 mg/m^2 IV, range over subjects, read-out: Half-lives range", "result": "7.24 to 10.9", "unit": "h"},
      {"measurement": "concentration at 72 h", "setting": "both sexes, iv, 48 mg/m^2, Cohort 4, 48 mg/m^2 IV, one subject measurable, read-out: concentration at 72 hours after the EOI", "result": 0.76, "unit": "ng/mL"},
      {"measurement": "concentration at 24.5 h", "setting": "both sexes, iv, 48 mg/m^2, Cohort 4, 48 mg/m^2 IV, range over 3 subjects", "result": "2.08 to 4.66", "unit": "ng/mL"},
      {"measurement": "concentration at 0.25 h", "setting": "[2]", "result": 192, "unit": "ng/mL"},
      {"measurement": "concentration at 0.75 h", "setting": "both sexes, iv, 48 mg/m^2, Compound 1 Concentration, Cohort 4, 48 mg/m^2 IV, Time 0.75 h, r7-9=Subjects 1-3,r11=Mean,r13=Min,r14=Median,r15=Max,r17=Geometric Mean", "result": 107, "unit": "ng/mL"},
      {"measurement": "concentration at 1 h", "setting": "both sexes, iv, 48 mg/m^2, Compound 1 Concentration, Cohort 4, 48 mg/m^2 IV, Time 1.00 h, r7-9=Subjects 1-3,r11=Mean,r13=Min,r14=Median,r15=Max,r17=Geometric Mean", "result": 81.9, "unit": "ng/mL"},
      {"measurement": "concentration at 2.5 h", "setting": "both sexes, iv, 48 mg/m^2, Compound 1 Concentration, Cohort 4, 48 mg/m^2 IV, Time 2.50 h, r7-9=Subjects 1-3,r11=Mean,r13=Min,r14=Median,r15=Max,r17=Geometric Mean", "result": 34.2, "unit": "ng/mL"},
      {"measurement": "concentration at 3.5 h", "setting": "both sexes, iv, 48 mg/m^2, Compound 1 Concentration, Cohort 4, 48 mg/m^2 IV, Time 3.50 h, r7-9=Subjects 1-3,r11=Mean,r13=Min,r14=Median,r15=Max,r17=Geometric Mean", "result": 27.6, "unit": "ng/mL"},
      {"measurement": "concentration at 6.5 h", "setting": "both sexes, iv, 48 mg/m^2, Compound 1 Concentration, Cohort 4, 48 mg/m^2 IV, Time 6.50 h, r7-9=Subjects 1-3,r11=Mean,r13=Min,r14=Median,r15=Max,r17=Geometric Mean", "result": 17, "unit": "ng/mL"},
      {"measurement": "concentration at 8.5 h", "setting": "both sexes, iv, 48 mg/m^2, Compound 1 Concentration, Cohort 4, 48 mg/m^2 IV, Time 8.50 h, r7-9=Subjects 1-3,r11=Mean,r13=Min,r14=Median,r15=Max,r17=Geometric Mean", "result": 12.1, "unit": "ng/mL"},
      {"measurement": "concentration at 12.5 h", "setting": "[2]", "result": 8.36, "unit": "ng/mL"},
      {"measurement": "AUC(0-inf)", "setting": "both sexes, iv, 96 mg/m2, Cohort 5, 96 mg/m^2 IV, mean, read-out: AUCinf averaged", "result": 1320, "unit": "ng·h/mL"},
      {"measurement": "Cmax", "setting": "both sexes, iv, 96 mg/m2, Cohort 5, 96 mg/m^2 IV, mean, read-out: Cmax averaged", "result": 900, "unit": "ng/mL"},
      {"measurement": "half-life", "setting": "both sexes, iv, 96 mg/m2, Cohort 5, 96 mg/m^2 IV, mean, read-out: Half-lives averaged (converted)", "result": 8.62, "unit": "h"},
      {"measurement": "Tmax", "setting": "both sexes, iv, 96 mg/m2, Cohort 5, 96 mg/m^2 IV, median, read-out: median Tmax", "result": 0.375, "unit": "h"},
      {"measurement": "half-life", "setting": "both sexes, iv, 96 mg/m2, Cohort 5, 96 mg/m^2 IV, range over subjects, read-out: Half-lives range", "result": "6.97 to 10.9", "unit": "h"},
      {"measurement": "AUC(0-t)", "setting": "[3]", "result": 1530, "unit": "ng·h/mL"},
      {"measurement": "MRT inf", "setting": "[3]", "result": 4.36, "unit": "h"},
      {"measurement": "AUC(0-inf)", "setting": "both sexes, iv, 96 mg/m^2, Cohort 5, 96 mg/m^2, 30-minute IV infusion, noncompartmental, subjects 1-6, Mean, Min, Median, Max, Geometric Mean, read-out: AUCinf", "result": 1590, "unit": "ng·h/mL"},
      {"measurement": "Cmax", "setting": "both sexes, iv, 96 mg/m^2, Cohort 5, 96 mg/m^2, 30-minute IV infusion, noncompartmental, subjects 1-6, Mean, Min, Median, Max, Geometric Mean, read-out: Cmax", "result": 949, "unit": "ng/mL"},
      {"measurement": "Tmax", "setting": "both sexes, iv, 96 mg/m^2, Cohort 5, 96 mg/m^2, 30-minute IV infusion, noncompartmental, subjects 1-6, Mean, Min, Median, Max, Geometric Mean, read-out: Tmax", "result": 0.5, "unit": "h"},
      {"measurement": "half-life", "setting": "both sexes, iv, 96 mg/m^2, Cohort 5, 96 mg/m^2, 30-minute IV infusion, noncompartmental, subjects 1-6, Mean, Min, Median, Max, Geometric Mean, read-out: t½ (converted)", "result": 7.11, "unit": "h"},
      {"measurement": "concentration at 24.5 h", "setting": "both sexes, iv, 96 mg/m^2, Cohort 5, 96 mg/m^2 IV, range over subjects", "result": "3.96 to 9.59", "unit": "ng/mL"},
      {"measurement": "concentration at 0.25 h", "setting": "[4]", "result": 843, "unit": "ng/mL"},
      {"measurement": "concentration at 0.5 h", "setting": "both sexes, iv, 96 mg/m^2, Compound 1 Concentration, Cohort 5, 96 mg/m^2 IV, Time 0.50 h, r7-12=Subjects 1-6,r14=Mean,r16=Min,r17=Median,r18=Max,r20=Geometric Mean", "result": 992, "unit": "ng/mL"},
      {"measurement": "concentration at 12.5 h", "setting": "[4]", "result": 11.9, "unit": "ng/mL"},
      {"measurement": "Tmax", "setting": "both, intravenous, […]2, Cohort 6, […]^2, 0-24.5 hr data, noncompartmental, subjects 1-6, Mean, Min, Median, Max, Geometric Mean, read-out: Tmax", "result": 0.5, "unit": "h"},
      {"measurement": "Tmax", "setting": "both, intravenous, […]2, Cohort 6, […]^2, 0-[…] data, noncompartmental, subjects 1-6, Mean, Min, Median, Max, Geometric Mean, read-out: Tmax", "result": 0.5, "unit": "h"},
      {"measurement": "half-life", "setting": "both, intravenous, […]2, Cohort 7, […]^2, N = 12, Geo. Mean, read-out: t1/2 (converted)", "result": 14.5, "unit": "h"},
      {"measurement": "Tmax", "setting": "both, intravenous, […]2, Cohort 7, […]^2, N = 12, Geo. Mean, read-out: tmax", "result": 0.36, "unit": "h"},
      {"measurement": "half-life", "setting": "both, intravenous, […]2, Cohort 7, […]^2, N = 12, min-max, read-out: t1/2 (converted)", "result": "11.9 to 17.3", "unit": "h"},
      {"measurement": "Tmax", "setting": "both, intravenous, […]2, Cohort 7, […]^2, N = 12, min-max, read-out: tmax", "result": "0.25 to 0.48", "unit": "h"},
      {"measurement": "half-life", "setting": "both, intravenous, […]^2, Cohort 6 + 7, […]^2, N = 18, Geo. Mean, read-out: t1/2 (converted)", "result": 14.5, "unit": "h"},
      {"measurement": "Tmax", "setting": "both, intravenous, […]^2, Cohort 6 + 7, […]^2, N = 18, Geo. Mean, read-out: tmax", "result": 0.37, "unit": "h"},
      {"measurement": "half-life", "setting": "both, intravenous, […]^2, Cohort 6 + 7, […]^2, N = 18, min-max, read-out: t1/2 (converted)", "result": "11.9 to 17.3", "unit": "h"},
      {"measurement": "Tmax", "setting": "both, intravenous, […]^2, Cohort 6 + 7, […]^2, N = 18, min-max, read-out: tmax", "result": "0.25 to 0.48", "unit": "h"},
      {"measurement": "half-life", "setting": "both, iv, […]2, Cohort 6, […]^2 IV, 0-24.5 hr data, mean, read-out: Half-lives averaged (converted)", "result": 7.87, "unit": "h"},
      {"measurement": "half-life", "setting": "both, iv, […]2, Cohort 6, […]^2 IV, 0-24.5 hr data, range over subjects, read-out: Half-lives range", "result": "5.78 to 8.79", "unit": "h"},
      {"measurement": "half-life", "setting": "both, iv, […]2, Cohort 6, […]^2 IV, 0-[…] data, mean, read-out: Half-lives averaging (converted)", "result": 18, "unit": "h"},
      {"measurement": "half-life", "setting": "both, iv, […]2, Cohort 6, […]^2 IV, 0-[…] data, range over subjects, read-out: Half-lives range", "result": "16.9 to 20.1", "unit": "h"},
      {"measurement": "Tmax", "setting": "both, iv, […]2, Cohort 6, […]^2 IV, median, read-out: median Tmax", "result": 0.5, "unit": "h"}
    ]}
  ]
}
